The record followed here is patent US20250339443A1, “METHOD FOR TREATING OR PREVENTING CALCIUM RELEASE-ACTIVATED CALCIUM CHANNEL OR DISCOIDIN DOMAIN RECEPTOR 2 RELATED DISORDERS OR CONDITIONS” (LumiSTAR Biotechnology, Inc., priority 2023, published 2025).

For assay [1], the system named is rat hepatic stellate cells (HSC-T6). In words: TGF-β1-induced activation of rat hepatic stellate cells (Western blot). Format: cell-based. The following applies: HSC-T6, 10 μM co-treatment, 24 hours. The method, then:
Cells were co-treated with various compounds (10 μM) and TGF-β1 for 24 hours. Following this, cell lysates were harvested, and the protein expression was assessed by Western blot analysis. FIG. 3D depicts the examination of TGF-β1-induced fibronectin deposition and α-SMA expression in HCF treated with 10 μM of DMSO, BTP2, WRG-28, or Av through immunofluorescence staining. The images were captured using a confocal microscope, the Olympus FV-1000. FIG. 3E, FIG. 3F, and FIG. 3G illustrate the assessment of CRAC channel activity in HCF, MRC5, and rat HSC-T6. These cells were pretreated with 10 μM of BTP2, WRG-28, or Av for 45 min. The evaluation included measuring the second peak of each calcium wave and the rate of entry. […]
Cell lysates were harvested in RIPA buffer (150 mM NaCl, 1 mM EGTA, 50 mM Tris pH 7.4, 10% glycerol, 1% Triton X-100, 1% sodium deoxycholate, 0.1% SDS, and protease inhibitor cocktail) and collected from culture dish with cell scrapers. […] The protein expression levels were assessed by specific primary antibodies, including antibodies against phosphotyrosine (clone 4G10; Millipore), DDR2 (R&D), α-SMA (Sigma), Collagen 1a1 (Boster), E-cadherin (BD Biosciences), SGLT2 (Proteintech), NHE1 (Novus) and β-actin (Clone C4, Millipore), followed by incubating with secondary antibodies conjugated with HRP and detected by ECL kit (Thermo Scientific). […]

For assay [2], the system named is NRK49F cells. In words: Collagen alignment assay in FITC-conjugated collagen gel. Format: cell-based, rat. Conditions: 10 ng/ml TGF-β1, 10 μM, 5 days. As to the method: FIG. 2A, FIG. 2B, FIG. 2C, FIG. 2D, FIG. 2E, FIG. 2F, FIG. 2G-1, and FIG. 2G-2 display how WRG-28 and Av suppress TGF-β1-induced fibroblasts activation and the differentiation of pericytes into myofibroblasts. […] Each bar represents the mean #SEM. […] The protein levels of collagen 1a1 and α-SMA were assessed using Western blot analysis under various conditions. […] Each bar represents mean±SEM. […] The images were acquired using a confocal microscope (Olympus, MPE). FIG. 2G-1 and FIG. 2G-2 display the measurement of angles between collagen fibers and the cell membrane, conducted using Image J. At least five different images from each condition were analyzed. Each bar represents mean±SEM. In all graphs, *, **, and *** represent p-value <0.05, 0.01, and 0.001, respectively. ‘ns’ denotes p-value >0.05, indicating no significant difference.
FITC-conjugated collagen was used to make collagen gel and cells were grown in the gel for 5 days. After that cells were fixed with 4% paraformaldehyde and phalloidin-TRICT was used as counterstaining in the evaluation of the cell body. The angles between fibers and cell membrane were measured by image J.
The alignment of the extracellular matrix (ECM) is a unique characteristic of myofibroblasts, altering the physical properties of the tissue microenvironment and posing a threat to tissue homeostasis during organ fibrosis. […]

In assay [3] the test system is THP-1 derived macrophages. Description: Cytokine secretion in macrophages (ELISA). Format: cell-based, human. Conditions: IFN-γ/LPS induction, culture medium.
For assay [4], the target named is CRAC channel (Homo sapiens, UniProt Q96D31). Description: CRAC channel activity / SOCE in MRC5. It is filed as cell-based. Set-up: endogenous in cells. Conditions: MRC5, 10 μM pretreatment 45 min. As to the method: Cells were co-treated with various compounds (10 μM) and TGF-β1 for 24 hours. Following this, cell lysates were harvested, and the protein expression was assessed by Western blot analysis. FIG. 3D depicts the examination of TGF-β1-induced fibronectin deposition and α-SMA expression in HCF treated with 10 μM of DMSO, BTP2, WRG-28, or Av through immunofluorescence staining. The images were captured using a confocal microscope, the Olympus FV-1000. FIG. 3E, FIG. 3F, and FIG. 3G illustrate the assessment of CRAC channel activity in HCF, MRC5, and rat HSC-T6. These cells were pretreated with 10 μM of BTP2, WRG-28, or Av for 45 min. The evaluation included measuring the second peak of each calcium wave and the rate of entry. Each bar within the figure represents the mean value derived from 77 to 91 cells for HCF, 31 to 49 cells for MRC5, and 43 to 94 cells for HSC-T6. In all the graphs, *, **, and *** denote p-values of <0.05, 0.01, and 0.001, respectively.
Cells cultured on a glass-bottom 96 well plate for 48 hours were treated with different compounds (10 μM) and Fura 2-AM (1 μM) simultaneously in a solution containing 145 mM NaCl, 2.8 mM KCl, 2 mM CaCl2, 2 mM MgCl2, 10 mM D-glucose, 10 mM HEPES, pH 7.4 for 40 minutes in the dark. […] All the images were analyzed by using IGOR Pro software. […]

CRAC channel, sequence (Q96D31 whole entry): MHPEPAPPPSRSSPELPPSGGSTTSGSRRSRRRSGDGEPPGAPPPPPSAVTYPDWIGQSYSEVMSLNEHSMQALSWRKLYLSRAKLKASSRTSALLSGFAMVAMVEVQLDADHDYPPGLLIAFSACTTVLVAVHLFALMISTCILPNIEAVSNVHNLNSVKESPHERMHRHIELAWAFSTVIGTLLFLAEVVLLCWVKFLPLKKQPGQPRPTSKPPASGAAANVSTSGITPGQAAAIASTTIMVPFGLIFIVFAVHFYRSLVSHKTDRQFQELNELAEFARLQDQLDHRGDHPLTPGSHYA

Consider `Cc1nnsc1C(=O)Nc1ccc(-n2nc(C(F)(F)F)cc2C(F)(F)F)cc1` [BTP2], for which, in assay [1], the “upregulation of α-SMA induced by TGF-β1” value was “suppressed”. For the same compound, the TGF-β1-induced collagen alignment result in assay [2] is recorded as “reduced”. Also, in assay [3], the “secretion of IL-2 in macrophages” value is recorded as “significantly reduced”, the “secretion of IL-6 in macrophages” value was “significantly reduced” and the “secretion of TNF-β in macrophages” value is given as “significantly reduced”.
Regarding `CCNS(=O)(=O)c1ccc(COc2ccc3nc4ccc(=O)cc-4oc3c2)cc1` [WRG-28], the SOCE result in assay [4] is reported as “notably reduced”. Besides, the “upregulation of α-SMA induced by TGF-β1” value in assay [1] was “suppressed”. For the same compound, in assay [2], the TGF-β1-induced collagen alignment result was “reduced”. For the same compound, in assay [3], the “secretion of IL-2 in macrophages” value is listed as “significantly reduced”, the “secretion of IL-6 in macrophages” value is listed as “significantly reduced” and the “secretion of TNF-β in macrophages” value is recorded as “significantly reduced”.
